Literature values in patent US20240401031A1, “Platform Using iPSC-Derived Cardiomyocytes Carrying Gene Variants as Models of Cardiac Disease and Drug-Response” (SRI INTERNATIONAL, priority 2021, published 2024).

Details: source CredibleMeds

Structure (SMILES)	Risk (Torsade de Pointes)
COc1ccccc1OCC(O)CN1CCN(CC(=O)Nc2c(C)cccc2C)CC1 (centres unmarked) [Ranolazine]	(CR)
CONC(=O)Nc1ccc(-c2sc3c(c2CN(C)C)c(=O)n(-c2ccc(OC)nn2)c(=O)n3Cc2c(F)cccc2F)cc1 [Relugolix]	(PR)
COC(=O)CC[C@@H]1N=C(c2ccccn2)c2cc(Br)ccc2-n2c(C)cnc21 [Remimazolam]	(PR)
CN(C)C(=O)c1cc2cnc(Nc3ccc(N4CCNCC4)cn3)nc2n1C1CCCC1 [Ribociclib]	(PR)
Cc1cc(/C=C/C#N)cc(C)c1Nc1ccnc(Nc2ccc(C#N)cc2)n1 [Rilpivirine]	(PR)
CC(NCCc1ccc(O)cc1)C(O)c1ccc(O)cc1 (centres unmarked) [Ritodrine]	(SR)
CC[C@H]1OC(=O)[C@H](C)[C@@H](O[C@H]2C[C@@](C)(OC)[C@@H](O)[C@H](C)O2)[C@H](C)[C@@H](O[C@@H]2O[C@H](C)C[C@H](N(C)C)[C@H]2O)[C@](C)(O)C[C@@H](C)/C(=N\OCOCCOC)[C@H](C)[C@@H](O)[C@]1(C)O [Roxithromycin]	(KR)
CNCc1ccc(-c2[nH]c3cc(F)cc4c3c2CCNC4=O)cc1 [Rucaparib]	(PR)
OCc1cc(C(O)CNCCCCCCOCCCCc2ccccc2)ccc1O (centres unmarked) [Salmeterol]	(SR)
COc1ccc(CN2C3CC2CN(c2ccc(-c4cc(OCC(C)(C)O)cn5ncc(C#N)c45)cn2)C3)cn1 [Selpercatinib]	(PR)
O=C1NCCN1CCN1CCC(c2cn(-c3ccc(F)cc3)c3ccc(Cl)cc23)CC1 [Sertindole]	(KR)
CN[C@H]1CC[C@@H](c2ccc(Cl)c(Cl)c2)c2ccccc21 [Sertraline]	(CR)
FCOC(C(F)(F)F)C(F)(F)F [Sevoflurane]	(KR)
CCc1cc(/C(C)=N/OCc2ccc(C3CCCCC3)c(C(F)(F)F)c2)ccc1CN1CC(C(=O)O)C1 [Siponimod]	(PR)
CNC(=O)c1cc(Oc2ccc(NC(=O)Nc3ccc(Cl)c(C(F)(F)F)c3)cc2)ccn1 [Sorafenib]	(PR)
C[C@@H]1CN(c2c(F)c(N)c3c(=O)c(C(=O)O)cn(C4CC4)c3c2F)C[C@H](C)N1 [Sparfloxacin]	(KR)
CCN1CCCC1CNC(=O)c1cc(S(N)(=O)=O)ccc1OC (centres unmarked) [Sulpiride]	(KR)
CCN1CCCC1CNC(=O)c1cc(S(=O)(=O)CC)ccc1OC (centres unmarked) [Sultopride]	(KR)
CCN(CC)CCNC(=O)c1c(C)[nH]c(/C=C2\C(=O)Nc3ccc(F)cc32)c1C [Sunitinib]	(PR)
C=CC[C@@H]1/C=C(\C)C[C@H](C)C[C@H](OC)[C@H]2O[C@@](O)(C(=O)C(=O)N3CCCC[C@H]3C(=O)O[C@H](/C(C)=C/[C@@H]3CC[C@@H](O)[C@H](OC)C3)[C@H](C)[C@@H](O)CC1=O)[C@H](C)C[C@@H]2OC [Tacrolimus]	(PR)
CCN(c1cc(-c2ccc(CN3CCOCC3)cc2)cc(C(=O)NCc2c(C)cc(C)[nH]c2=O)c1C)C1CCOCC1 [Tazemetostat]	(PR)

Structure (SMILES)	Risk (Torsade de Pointes)
CCC[C@H](NC(=O)[C@@H]1[C@H]2CCC[C@H]2CN1C(=O)[C@@H](NC(=O)[C@@H](NC(=O)c1cnccn1)C1CCCCC1)C(C)(C)C)C(=O)C(=O)NC1CC1 [Telaprevir]	(CR)
CC[C@H]1OC(=O)[C@H](C)C(=O)[C@H](C)[C@@H](O[C@@H]2O[C@H](C)C[C@H](N(C)C)[C@H]2O)[C@](C)(OC)C[C@@H](C)C(=O)[C@H](C)[C@H]2N(CCCCn3cnc(-c4cccnc4)c3)C(=O)O[C@]12C [Telithromycin]	(PR)
CC(C)(C)NCC(O)c1cc(O)cc(O)c1 (centres unmarked) [Terbutaline]	(SR)
CC(CC(c1ccccc1)c1ccccc1)NC(C)(C)C (centres unmarked) [Terodiline]	(KR)
COc1cc2c(cc1OC)C1CC(=O)C(CC(C)C)CN1CC2 (centres unmarked) [Tetrabenazine]	(PR)
CCN(CC)CCNC(=O)c1cc(S(C)(=O)=O)ccc1OC [Tiapride]	(PR)
CN(C)CCOc1ccc(/C(=C(/CCCl)c2ccccc2)c2ccccc2)cc1 [Toremifene]	(PR)
Cc1cccc(Nc2ccncc2S(=O)(=O)NC(=O)NC(C)C)c1 [Torsemide]	(CR)
COc1cccc(C2(O)CCCCC2CN(C)C)c1 (centres unmarked) [Tramadol]	(PR)
O=c1n(CCCN2CCN(c3cccc(Cl)c3)CC2)nc2ccccn12 [Trazodone]	(CR)
CC(CN(C)C)CN1c2ccccc2CCc2ccccc21 (centres unmarked) [Trimipramine]	(PR)
CN1[C@@H]2CC[C@H]1C[C@@H](OC(=O)c1c[nH]c3ccccc13)C2 [Tropisetron]	(PR)
COc1cc2c(cc1OC)[C@H]1C[C@@H](OC(=O)[C@@H](N)C(C)C)[C@H](CC(C)C)CN1CC2 [Valbenazine]	(PR)
COc1cc2c(Nc3ccc(Br)cc3F)ncnc2cc1OCC1CCN(C)CC1 [Vandetanib]	(KR)
CCCS(=O)(=O)Nc1ccc(F)c(C(=O)c2c[nH]c3ncc(-c4ccc(Cl)cc4)cc23)c1F [Vemurafenib]	(PR)
C=C/C=C/C[C@@H](C)[C@@H](O)[C@H]1C(=O)N[C@@H](CC)C(=O)N(C)CC(=O)N(C)[C@@H](CC(C)C)C(=O)N[C@@H](C(C)C)C(=O)N(C)[C@@H](CC(C)C)C(=O)N[C@@H](C)C(=O)N[C@H](C)C(=O)N(C)[C@@H](CC(C)C)C(=O)N(C)[C@@H](CC(C)C)C(=O)N(C)[C@@H](C(C)C)C(=O)N1C [Voclosporin]	(PR)
O=C(CCCCCCC(=O)Nc1ccccc1)NO [Vorinostat]	(PR)
Cc1cc(C(C)(C)C)cc(C)c1CC1=NCCN1 [Xylometazoline]	(SR)
O=C1Cc2cc(CCN3CCN(c4nsc5ccccc45)CC3)c(Cl)cc2N1 [Ziprasidone]	(CR)
OCCN1CCN(CC/C=C2/c3ccccc3Sc3ccc(Cl)cc32)CC1 [Zuclopenthixol]	(PR)
